Patent US20240181020A1, “TREATMENT OF HYPOPARATHYROIDISM” (Entera Bio Ltd., priority 2015, published 2024)
Blank lines part the entries; values can stand above or below the compound they belong to.

Columns and labels:
[1] = Phase IIa study: teriparatide serum levels after oral dosing before and after a meal; type: in vivo, human; settings: second administration on day 1 vs empty stomach
Procedure: (§1) To determine parathyroid hormone(1-34) concentrations, blood samples (4 ml each) were drawn via an indwelling catheter from the forearm vein at predetermined time points. The cannula was flushed with 1.5 ml normal saline after each sampling. In addition, to avoid sample dilution, 1 ml of blood was drawn and discarded before the next sample. The blood samples were taken at following times: baseline (predose), 15 minutes, 30 minutes, 45 minutes, 60 minutes, 75 minutes, 90 minutes, 105 minutes, 2 hours, 3 hours, 4 hours and 5 hours post-administration. Each blood sample was collected into a single tube containing EDTA (ethylenediaminetetraacetic acid) and placed on ice. Within 15 minutes of blood collection, samples were centrifuged for 10 minutes at 4° C. […] PTH levels were measured using an IDS-iSYS automated assay for the measurement of intact PTH in human plasma or serum.
Teriparatide was administered 4 times per day, prior to meals, for 16 weeks. […] On the first day of treatment during follow up visits at the end of weeks 1, 2, 3, 4, 6, 8, 10, 12 and 16, serum calcium, phosphorus, albumin, and creatinine were evaluated, and dose adjustment of supplemental calcium medications was performed based on albumin adjusted calcium (ACa) levels. […] Quality of Life was (QoL) was monitored using a standard questionnaire.

[2] = test system: patients with established primary hypoparathyroidism (PHP); experiment: Phase IIa multi-center clinical study of oral teriparatide, 4 times per day for 16 weeks; type: in vivo, human
Procedure: A Phase IIa multi-center clinical study of an exemplary oral formulation comprising teriparatide was conducted on 19 patients with established primary hypoparathyroidism (PHP) (for more than one year). PHP was postsurgical in 13 patients, autoimmune in 5 patients and hereditary in 1 patient.
The average age of the patients was 44.5 years (range 20.3 to 71 years). At enrollment, the patients were treated with an average of 3.64 grams calcium supplement per day (range 1-10.8 grams per day) and 1.1 μg alphacalcidol supplement per day (range 0-2 μg per day). Patients with low hemoglobin, estimated glomerular filtration rate (eGFR) of less than 40 ml per minute per 1.73 m^2, liver enzymes at least 3 times the upper limit, drug or alcohol abuse, kidney/urinary tract stones, 25-hydroxycholecalciferol (25(OH)D) serum levels of less than 20 ng/ml or BMI outside the range of […] were excluded from the study.
The formulation was composed of teriparatide (750 μg per dose), SNAC, soybean trypsin inhibitor and magnesium stearate.
Teriparatide was administered 4 times per day, prior to meals, for 16 weeks. Following the first two doses, plasma samples were taken for pharmacokinetic analysis by determining teriparatide serum levels according to procedures described in Example 1. On the first day of treatment during follow up visits at the end of weeks 1, 2, 3, 4, 6, 8, 10, 12 and 16, serum calcium, phosphorus, albumin, and creatinine were evaluated, and dose adjustment of supplemental calcium medications was performed based on albumin adjusted calcium (ACa) levels. 24 hour urine samples were collected at the end of weeks 8 and 16. Quality of Life was (QoL) was monitored using a standard questionnaire.

[3] = Open label comparative pharmacokinetic study: oral teriparatide tablet with water or sodium bicarbonate solution; type: in vivo, human; settings: 0.75 mg oral tablet with 150 ml of 3 mg/ml sodium bicarbonate solution vs 150 ml water; ten healthy volunteers; FIG. 25
Procedure: An open label comparative pharmacokinetic study was performed on ten healthy volunteers. On different visits, each volunteer received the same oral tablet containing 0.75 mg of teriparatide, a recombinant form of parathyroid hormone (1-34) (PTH(1-34)). In the first visit, the tablet was administered with 150 ml water, whereas in the second visit the tablet was administered with 150 ml of 3 mg/ml sodium bicarbonate aqueous solution.
The formulation was composed of teriparatide (0.75 mg), SNAC (sodium 8-N-(2-hydroxybenzoyl) aminocaprylate), soybean trypsin inhibitor (SBTI) and a small amount of magnesium stearate.
Tablets were administered in the morning after an 8-hour overnight fast. At each visit a standard meal was provided 3 hours after drug administration. […] There was a two week period between the two visits.
To determine PTH(1-34) concentrations, blood samples were drawn and PTH(1-34) levels were measured using an IDS-iSYS automated assay, using procedures described in Example 1 hereinabove. Relative absorption was determined based on the AUC (area under curve) parameter.

[4] = Phase I clinical study: plasma PTH(1-34) after oral teriparatide tablets vs subcutaneous injection; type: in vivo, human; settings: healthy volunteers, FIG. 1
Procedure: A Phase I clinical study of exemplary oral formulations comprising teriparatide (parathyroid hormone (1-34)) was conducted at the Hadassah Clinical Research Center. 42 healthy volunteers were included throughout the study.
The formulation was composed of teriparatide (200, 400, 680, 1400 or 1800 μg), SNAC (sodium 8-N-(2-hydroxybenzoyl) aminocaprylate), soybean trypsin inhibitor and magnesium stearate.
Tablets were administered in the morning after an 8-hour overnight fast and immediately followed by 150 ml of water. At each visit a standard meal was provided 3 hours after drug administration.
as §1, with “ice.” for “ice. Within 15 minutes of blood collection, samples were centrifuged for 10 minutes at 4° C.”, “serum. […]” for “serum.”

hypoparathyroidism = settings: cited from earlier work
[5] = test system: plasma levels of cAMP, a known marker of PTH activity; experiment: Phase I clinical study: plasma cAMP as marker of PTH activity; type: in vivo, human; settings: oral 680 μg and subcutaneous 20 μg teriparatide; FIG. 3
Procedure: In addition, plasma levels of cAMP, a known marker of PTH activity, were determined in order to confirm biological activity of administered PTH. cAMP plasma levels were measured following oral administration of 680 μg teriparatide or subcutaneous injection of 20 μg teriparatide, as described hereinabove.

[6] = Release of SNAC from tablets with or without sodium bicarbonate in simulated gastric buffer; type: physicochemical; settings: tablet with 100 mg sodium bicarbonate vs without; simulated gastric buffer pH 2.0, 37° C., 50 rotations per minute; FIG. 24
Procedure: The tablets were in a form of a homogeneous mixture. Each tablet formulation was subjected to a dissolution test in 100 ml of simulated gastric buffer (without pepsin), pH 2.0, at 37° C., according to USP 23 Apparatus 2 (paddle) with 50 rotations per minute. The amount of released SNAC in each sample was determined chromatographically, using an HPLC apparatus with Cosmosil™ 5 C18-MS-II (4.6 ID×250 mm) column. Mobile phase consisted of 50% acetonitrile and 50% phosphoric acid solution (0.1%). Flow rate was 1 ml/minute and injection volume was 25 μl. Amount of released SNAC was calculated as a percentage of the amount of SNAC in the formulation.

[7] = patient, 16-week treatment, FIG. 8

PTH(1-34) serum levels, after a meal relative to prior to a meal, sample case ([1]; patient, FIG. 10): about half
PTH(1-34) serum levels, after a meal relative to prior to a meal ([1]; FIGS. 6 and 7): about half
increase in absorption of PTH(1-34) (AUC) [3]: about 35%
Cmax of PTH(1-34) following oral administration, relation to dose ([4]; oral doses 200, 400, 680, 1400 or 1800 μg): proportional to the dose
oral dose of teriparatide providing a Cmax equivalent to that of subcutaneous administration of 20 μg teriparatide ([4]; oral tablets with SNAC, soybean trypsin inhibitor, magnesium stearate, 8-hour overnight fast): roughly 750 μg
Structure (SMILES): CC[C@H](C)[C@H](NC(=O)[C@H](CCC(=O)O)NC(=O)[C@H](CO)NC(=O)[C@@H](NC(=O)[C@@H](N)CO)C(C)C)C(=O)N[C@@H](CCC(N)=O)C(=O)N[C@@H](CC(C)C)C(=O)N[C@@H](CCSC)C(=O)N[C@@H](Cc1cnc[nH]1)C(=O)N[C@@H](CC(N)=O)C(=O)N[C@@H](CC(C)C)C(=O)NCC(=O)N[C@@H](CCCCN)C(=O)N[C@@H](Cc1cnc[nH]1)C(=O)N[C@@H](CC(C)C)C(=O)N[C@@H](CC(N)=O)C(=O)N[C@@H](CO)C(=O)N[C@@H](CCSC)C(=O)N[C@@H](CCC(=O)O)C(=O)N[C@@H](CCCN=C(N)N)C(=O)N[C@H](C(=O)N[C@@H](CCC(=O)O)C(=O)N[C@@H](Cc1c[nH]c2ccccc12)C(=O)N[C@@H](CC(C)C)C(=O)N[C@@H](CCCN=C(N)N)C(=O)N[C@@H](CCCCN)C(=O)N[C@@H](CCCCN)C(=O)N[C@@H](CC(C)C)C(=O)N[C@@H](CCC(N)=O)C(=O)N[C@@H](CC(=O)O)C(=O)N[C@H](C(=O)N[C@@H](Cc1cnc[nH]1)C(=O)N[C@@H](CC(N)=O)C(=O)N[C@@H](Cc1ccccc1)C(=O)O)C(C)C)C(C)C [teriparatide]
urinary calcium, margin below the upper limit of normal ([2]; 3 subjects with sustained elevations): more than 30%
average decrease in urinary calcium ([2]; 13 subjects with sustained decrease): 34%
urinary calcium ([2]; 13 subjects with sustained decrease, from 209 mg per 24 hours): 136 mg per 24 hours
serum phosphorus after each dose, range ([2]; 60 minutes after oral dose, throughout 16 weeks): 2.9 to 5.2 mg/dL
serum phosphorus, average level after each dose ([2]; 60 minutes after oral dose, throughout 16 weeks, p<0.02, FIG. 5): 4.3 mg/dL
pre-dose serum phosphorus levels ([2]; FIG. 5): reduced following 2 weeks of treatment
reduction of calcium intake ([2]; after 16 weeks, relative to baseline): 1278 ± 880 mg
average reduction of calcium intake ([2]; after 16 weeks, relative to baseline, FIG. 4): 37%
calcium intake ([2]; after 16 weeks, baseline 3692 mg): 2414 mg
subjects with urinary calcium above the normal range ([2]; at the end of 16 weeks, subjects who completed the study): one of the 17
albumin adjusted calcium, range ([2]; during treatment, baseline range 7.2-8.99): 6.97-9.14 md/dL
albumin adjusted calcium, mean level ([2]; maintained during treatment while calcium intake was decreased, baseline 7.92): 8.15 mg/dL
related adverse events ([2]; oral 750 μg per dose, 4 times per day, 16 weeks, 17 subjects completed): no related adverse events
safety and tolerability ([2]; oral 750 μg per dose, 4 times per day, 16 weeks, 17 subjects completed, over 8000 doses): safe and well tolerated
reduction of calcium intake, sample case [2, 7]: over 50%
reduction of urinary calcium levels, sample case [2, 7]: over 50%
total serum levels of 25-hydroxycholecalciferol (25(OH)D), sample case ([2]; patient, end of week 4, baseline 32.2 ng/ml, constant alphacalcidol): 36.7 ng/mL
ACa levels, sample case ([2]; patient, FIG. 9): gradually increased
serum phosphate levels, sample case ([2]; patient, FIG. 9): gradually decreased
Quality of Life health score, sample case ([2]; patient, increased from 70): 80
reduction in the PTH dose needed to maintain normal serum calcium levels (hypoparathyroidism; pump vs twice-daily subcutaneous injection, from 37 μg per day to 13 μg per day): 65%
reduction in urine calcium (hypoparathyroidism; subcutaneous infusion by insulin pump vs twice-daily subcutaneous injection): more than 50%
plasma cAMP levels [5]: increased plasma cAMP levels to a similar degree

dissolution of SNAC from tablets, effect of sodium bicarbonate [6]: considerably enhanced the dissolution
Structure (SMILES): O=C(O)CCCCCCCNC(=O)c1ccccc1O [SNAC, sodium 8-N-(2-hydroxybenzoyl)aminocaprylate]
